{"source": "patent US8067395B2", "about": "“Inhibitors of tyrosine kinases and uses thereof” (Pharmacyclics, Inc., priority 2006, dated 2011)", "data": [{"molecular_target": "Btk (Homo sapiens, UniProt Q06187)", "sequence (Q06187 whole entry)": "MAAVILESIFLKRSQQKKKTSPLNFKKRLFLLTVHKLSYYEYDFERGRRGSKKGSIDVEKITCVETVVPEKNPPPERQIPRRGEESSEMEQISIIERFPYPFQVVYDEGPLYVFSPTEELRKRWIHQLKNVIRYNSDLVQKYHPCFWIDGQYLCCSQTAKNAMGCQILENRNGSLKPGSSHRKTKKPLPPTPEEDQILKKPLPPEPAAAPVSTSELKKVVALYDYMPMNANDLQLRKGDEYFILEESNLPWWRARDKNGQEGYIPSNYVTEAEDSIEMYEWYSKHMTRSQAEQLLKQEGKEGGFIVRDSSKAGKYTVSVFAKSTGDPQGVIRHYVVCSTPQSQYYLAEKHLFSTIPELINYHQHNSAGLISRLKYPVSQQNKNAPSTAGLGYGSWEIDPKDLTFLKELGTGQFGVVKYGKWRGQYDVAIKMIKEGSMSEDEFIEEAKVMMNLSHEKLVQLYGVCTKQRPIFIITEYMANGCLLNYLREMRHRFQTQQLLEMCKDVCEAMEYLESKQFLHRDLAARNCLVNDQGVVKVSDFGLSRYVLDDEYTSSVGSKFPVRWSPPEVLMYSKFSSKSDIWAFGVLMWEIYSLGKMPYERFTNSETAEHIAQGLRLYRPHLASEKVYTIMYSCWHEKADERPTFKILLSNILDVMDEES", "assay": "Btk TR-FRET kinase inhibition assay", "type": "biochemical", "conditions": "pH 7.4, ATP at the Km for the kinase, 1 μM peptide substrate, [Btk]total=0.5 nM, read-out: Btk-TRFRET (Ki)", "procedure": "Suitable in vitro assays for measuring kinase activity and the inhibition thereof by compounds are known (e.g., see Kuzmic et al. Anal. Biochem. 2000, 286, 45-50).\nThe following protocol represents an assay for determination of inhibition of kinases under physiological conditions (pH 7.4). Kinase activity was determined using a time-resolved fluorescence resonance energy transfer (TR-FRET) methodology. Measurements were performed in a reaction volume of 50 μL using 96-well assay plates. Kinase enzyme, inhibitor, ATP (at the Km for the kinase), and 1 μM peptide substrate (Biotin-AVLESEEELYSSARQ-NH2) were incubated in a reaction buffer composed of 20 mM Tris, 50 mM NaCl, MgCl2 (5-25 mM depending on the kinase), 1 mM DTT, 0.1 mM EDTA, 0.01% bovine serum albumin, 0.005% Tween-20, and 10% DMSO at pH 7.4 for one hour. The reaction was quenched by the addition of 1.2 equivalents of EDTA (relative to Mg^2+) in 25 μL of 1× Lance buffer (Perkin-Elmer). Streptavidin-APC (Perkin-Elmer) and Eu-labeled p-Tyr100 antibody (Perkin-Elmer) in 1× Lance buffer were added in a 25 μL volume to give final concentrations of 100 nM and 2.5 nM, respectively, and the mixture was allowed to incubate for one hour. The TR-FRET signal was measured on a multimode plate reader with an excitation wavelength of 330 nm and detection wavelengths of 615 nm and 665 nm. Activity was determined by the ratio of the fluorescence at 665 nm to that at 615 nm. For each compound, enzyme activity was measured at various concentrations of compound. Negative control reactions were performed in the absence of inhibitor in replicates of six, and two no-enzyme controls were used to determine baseline fluorescence levels. Inhibition constants were obtained using the program BatchKi (Kuzmic et al. Anal. Biochem. 2000, 286, 45-50). IC50s were obtained according to this equation: IC50={Ki(app)/(1+[ATP]/Km^ATP)}+[E]total/2; for all kinases, [ATP]=Km^ATP, [Btk]total=0.5 nM and [Lck]total=6 nM.", "units": {"Ki": "nM"}, "values": [{"smiles": "Cc1cc(F)ccc1Nc1nc2ccc3c(C)c(/C=C/CNC(=O)C4CCP(C)(=O)CC4)[nH]c(=O)c3c2n1C", "note": "(mixture of isomers) [Compound 15, 2-(4-fluoro-2-methylphenylamino)-1,6-dimethyl-7-{3-[(1-oxo-1-methyl-1λ^5-phosphinan-4-yl)-carbonylamino]propenyl}-1,8-dihydro-imidazo[4,5-h]isoquinolin-9-one]", "Ki": "< 100"}, {"smiles": "Cc1cc(F)ccc1Nc1nc2ccc3c(C)c(/C=C/CN4CCP(C)(=O)CC4)[nH]c(=O)c3c2n1C", "note": "[Compound 1, 2-(4-fluoro-2-methylphenylamino)-1,6-dimethyl-7-[3-(4-methyl-4-oxo-4λ^5[1,4]azaphosphinan-1-yl)-propenyl]-1,8-dihydro-imidazo[4,5-h]isoquinolin-9-one]", "Ki": "< 100"}, {"smiles": "Cc1c(C=CCN2CCP(C)(=O)CC2)[nH]c(=O)c2c1ccc1nc(Nc3c(Cl)cccc3Cl)n(C)c12", "note": "[Compound 2, 2-(2,6-dichloro-phenylamino)-1,6-dimethyl-7-[3-(4-methyl-4-oxo-4λ^5[1,4]azaphosphinan-1-yl)-propenyl]-1,8-dihydro-imidazo[4,5-h]isoquinolin-9-one]", "Ki": "< 100"}, {"smiles": "Cc1cc(F)ccc1Nc1nc2ccc3c(C)c(/C=C/CN4CCP(=O)(c5ccccc5)CC4)[nH]c(=O)c3c2n1C", "note": "[Compound 3, 2-(4-fluoro-2-methylphenylamino)-1,6-dimethyl-7-[3-(4-oxo-4-phenyl-4λ^5-[1,4]azaphosphinan-1-yl)-propenyl]-1,8-dihydro-imidazo[4,5-h]isoquinolin-9-one]", "Ki": "< 100"}, {"smiles": "Cc1ccc(F)cc1Nc1nc2ccc3c(C)c(C=CCN4CCP(=O)(c5ccccc5)CC4)[nH]c(=O)c3c2n1C", "note": "[Compound 4, 2-(3-fluoro-6-methylphenylamino)-1,6-dimethyl-7-[3-(4-oxo-4-phenyl-4λ^5-[1,4]azaphosphinan-1-yl)-propenyl]-1,8-dihydro-imidazo[4,5-h]isoquinolin-9-one]", "Ki": "< 100"}, {"smiles": "Cc1c(/C=C/CN2CCP(=O)(c3ccccc3)CC2)[nH]c(=O)c2c1ccc1nc(Nc3c(Cl)cccc3Cl)n(C)c12", "note": "[Compound 5, 2-(2,6-dichlorophenylamino)-1,6-dimethyl-7-[3-(4-oxo-4-phenyl-4λ^5-[1,4]azaphosphinan-1-yl)-propenyl]-1,8-dihydro-imidazo[4,5-h]isoquinolin-9-one]", "Ki": "< 100"}, {"smiles": "Cc1cc(Cl)cc(Cl)c1Nc1nc2ccc3c(C)c(C=CCN4CCP(=O)(c5ccccc5)CC4)[nH]c(=O)c3c2n1C", "note": "[Compound 6, 2-(2,4-dichloro-6-methylphenylamino)-1,6-dimethyl-7-[3-(4-oxo-4-phenyl-4λ^5-[1,4]azaphosphinan-1-yl)-propenyl]-1,8-dihydro-imidazo[4,5-h]isoquinolin-9-one]", "Ki": "< 100"}, {"smiles": "Cc1ccc(F)cc1Nc1nc2ccc3c(C)c(C=CC(=O)N4CCP(=O)(c5ccccc5)CC4)[nH]c(=O)c3c2n1C", "note": "[Compound 7, 2-(3-fluoro-6-methylphenylamino)-1,6-dimethyl-7-{2-[(4-oxo-4-phenyl-4λ^5-[1,4]azaphosphinan-1-yl)-carbonyl]ethenyl}-1,8-dihydro-imidazo[4,5-h]isoquinolin-9-one]", "Ki": "100 to 1000"}, {"smiles": "Cc1cc(Cl)cc(Cl)c1Nc1nc2ccc3c(C)c(CCCN4CCP(=O)(c5ccccc5)CC4)[nH]c(=O)c3c2n1C", "note": "[Compound 8, 2-(2,4-dichloro-6-methylphenylamino)-1,6-dimethyl-7-[3-(4-oxo-4-phenyl-4λ^5-[1,4]azaphosphinan-1-yl)-propyl]-1,8-dihydro-imidazo[4,5-h]isoquinolin-9-one]", "Ki": "100 to 1000"}, {"smiles": "Cc1cc(F)ccc1Nc1nc2ccc3c(C)c(CCCN4CCP(=O)(c5ccccc5)CC4)[nH]c(=O)c3c2n1C", "note": "[Compound 9, 2-(4-fluoro-2-methylphenylamino)-1,6-dimethyl-7-[3-(4-oxo-4-phenyl-4λ^5-[1,4]azaphosphinan-1-yl)-propyl]-1,8-dihydro-imidazo[4,5-h]isoquinolin-9-one]", "Ki": "100 to 1000"}]}]}
